Experimental findings from publication PMC12174747, “Ligand Screening and Discovery Using Cocktail Soaking and Automated Microcrystal Electron Diffraction” (Chemmedchem, 2025) are described below.

Structures can show the parent of a compound that is named as a salt. Where two headings read alike, the source gives them in different places.

For one assay, the target named is T1, thermolysin (Bacillus thermoproteolyticus, UniProt P00800).
T1 construct: gene npr
T1 sequence (P00800 233-548): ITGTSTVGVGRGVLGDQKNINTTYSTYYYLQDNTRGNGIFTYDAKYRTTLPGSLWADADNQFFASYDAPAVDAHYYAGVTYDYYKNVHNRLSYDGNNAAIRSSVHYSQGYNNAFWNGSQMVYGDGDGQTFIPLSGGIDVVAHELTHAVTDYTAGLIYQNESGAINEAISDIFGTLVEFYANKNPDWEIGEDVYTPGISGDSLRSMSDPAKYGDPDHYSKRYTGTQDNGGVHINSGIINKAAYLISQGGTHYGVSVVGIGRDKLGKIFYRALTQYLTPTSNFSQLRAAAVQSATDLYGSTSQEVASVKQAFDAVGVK
Description: MicroED crystal structure (cocktail and individual soaking) and microscale thermophoresis. The assay is classed as binding.

The target in another assay is T2, proteinase K (Parengyodontium album, UniProt P06873).
T2 construct: gene PROK
The assay is described as above. It is filed as binding.

T2 sequence (P06873 106-384): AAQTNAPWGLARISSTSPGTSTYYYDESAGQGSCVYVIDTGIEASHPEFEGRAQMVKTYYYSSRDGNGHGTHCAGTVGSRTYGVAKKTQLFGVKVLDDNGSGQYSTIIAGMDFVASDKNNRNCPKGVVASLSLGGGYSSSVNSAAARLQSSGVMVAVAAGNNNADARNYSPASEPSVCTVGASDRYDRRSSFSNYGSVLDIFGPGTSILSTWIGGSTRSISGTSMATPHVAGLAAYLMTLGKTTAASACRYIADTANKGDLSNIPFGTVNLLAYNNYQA

As for `O=C(O)CNC(=O)C(CS)Cc1ccccc1` (stereo not drawn) [compound 2, thiorphan], the equilibrium dissociation constant (Kd) at thermolysin (read-out: Kd) turned out to be 4 µM.

`CC(C)C[C@H](NP(=O)(O)O[C@@H]1O[C@@H](C)[C@H](O)[C@@H](O)[C@H]1O)C(=O)N[C@@H](Cc1c[nH]c2ccccc12)C(=O)O` [compound 1, phosphoramidon disodium salt] came in with a Kd on thermolysin of 0.345 µM.

“benzenesulfonyl fluoride hydrochloride [compound 4]” showed a Kd at proteinase K of 260 µM.

The Kd is the free concentration of one partner at which half of the binding sites on the other are occupied at equilibrium, for simple one-to-one binding.
